# Experimental data published in patent US20120071505A1, “SUBSTITUTED PYRIDINE DERIVATIVES, PHARMACEUTICAL COMPOSITIONS, AND METHODS OF USE TO TREAT OXIDATIVE STRESS” (HIGH POINT PHARMACEUTICALS, LLC, priority 2009, published 2012).
# Test system: HMOX1 mRNA expression
# Experiment: Oxidative stress gene expression (mRNA) protocol: heme oxygenase mRNA induction in NHLF cells (Quantigene Plex 2.0, Luminex)
# Format: cell-based, human
# Conditions: 2.5 μM compound, 6 h, normalized to GAPDH, above DMSO treated cells
# Description: Oxidative Stress Gene Expression (mRNA) Protocol
# Cell Culture. Normal Human Fibroblast (NHLF), were obtained from Lonza. Cultures of cells were maintained in Fibroblast Growth Medium (FGM-2) medium supplemented with 2% fetal bovine serum (FBS), Fibroblast Growth Factor (hFGF-B) 0.5 ml, Insulin 0.5 ml, gentamicin/amphotericin-B 0.5 mL at 37° C. in a humidified atmosphere of 5% CO2. Primary isolates of cell are cultured in T-225 flasks (Corning) as per instructions from the vendor. Cells are grown to 80% confluence before harvesting. Cells are harvested by first washing with 5 mL of Hepes buffered saline solution (Lonza). The buffered salt solution is aspirated and then 5 mL of a solution of Trypsin-EDTA is added to detach the cells from the culture flask. To this mixture 5 mL of Trypsin neutralization solution (Lonza) is added Trypsin. The mixture is centrifuged at 500×g for 10 minutes at 4° C. The cell pellet is resuspended to a final concentration of one million cells per milliliter in fetal bovine serum containing 6% DMSO. The cells are then dispensed into cyrovials and frozen in liquid nitrogen for storage.
# Heme oxygenase mRNA expression. Secondary growth of NHLF cells are used for all assays. Cell are thawed and then placed into culture in T225 flasks. The cells are grown to 80% confluency and harvested by washing once with HEPES buffered saline solution and then trypsinized. Equal numbers (7×10^3 cells per well) of NHLF cells were plated in 96 well tissue culture plates (Corning). Cells were incubated overnight in FGM-2 medium prior to exposure to compound. Cells were treated with either DMSO or a compound of the Examples above for 6 h. Preparation of cell lysates was carried out according to instructions using the Quantigene Reagent system 2.0 protocol (Panomics). Heme oxygenase mRNA induction was detected from cell lysate using the Quantigene Plex 2.0 Assay Kit (Panomics) on the Luminex platform (BIO-RAD). Expression of GAPDH mRNA was used as the internal control for the Quantigen Plex 2.0 Assay. The data in Table 1 represents the fold change of heme oxygenase mRNA expression, normalized to control values, above DMSO treated cells.
row,SMILES,Fold Change of HMOX1 mRNA expression (at 2.5 μM)
1,"CC1OCCC1S(=O)(=O)c1c(-c2ccc(C(F)(F)F)cc2)cnc2ccccc12 (centres unmarked) [Example 27, 3-(4-trifluoromethyl-phenyl)-4-(2-methyl-tetrahydro-furan-3-sulfonyl)-quinoline]",27.5 (at 2.5 μM) fold

# Same assay, conditions: 3 μM compound, 6 h, normalized to GAPDH, above DMSO treated cells
row,SMILES,Fold Change of HMOX1 mRNA expression (at 3 μM)
1,"COc1cccc2c(S(=O)(=O)C3CCOC3C)c(C(=O)OCC3CCCCC3)cnc12 (centres unmarked) [Example 9, 8-Methoxy-4-(2-methyl-tetrahydro-furan-3-sulfonyl)-quinoline-3-carboxylic acid cyclohexylmethyl ester]",2 (at 3 μM) fold
2,"COc1cccc2c(S(=O)(=O)C3CCOC3C)c(C(=O)OC3CCCCC3)cnc12 (centres unmarked) [Example 8, 8-Methoxy-4-(2-methyl-tetrahydro-furan-3-sulfonyl)-quinoline-3-carboxylic acid cyclohexyl ester]",4.5 (at 3 μM) fold
3,"CCOC(=O)c1cnc2c(OC)cccc2c1S(=O)(=O)C1CCCCC1 [Example 3, 4-Cyclohexanesulfonyl-8-methoxy-quinoline-3-carboxylic acid ethyl ester]",6.7 (at 3 μM) fold
4,"CCCS(=O)(=O)c1cnc2ccc(OC)cc2c1NC1CCCCC1 [Example 30, cyclohexyl-[6-methoxy-3-(propane-1-sulfonyl)-quinolin-4-yl]-amine]",4.0 (at 3 μM) fold
5,"COc1cccc2c(S(=O)(=O)C3CCOC3C)c(C(=O)OCC3CCCO3)cnc12 (centres unmarked) [Example 11, 8-Methoxy-4-(2-methyl-tetrahydro-furan-3-sulfonyl)-quinoline-3-carboxylic acid tetrahydro-furan-2-ylmethyl ester]",2.7 (at 3 μM) fold
6,"CCCS(=O)(=O)c1cnc2c(OC(F)(F)F)cccc2c1NC1CCCC1 [Example 31, cyclopentyl-[3-(propane-1-sulfonyl)-8-trifluoromethoxy-quinolin-4-yl]-amine]",4.0 (at 3 μM) fold
7,"CCCS(=O)(=O)c1cnc2ccc(OC)cc2c1NC1CCCC1 [Example 29, cyclopentyl-[6-methoxy-3-(propane-1-sulfonyl)-quinolin-4-yl]amine]",4.0 (at 3 μM) fold

# Same assay, conditions: 10 μM compound, 6 h, normalized to GAPDH, above DMSO treated cells
row,SMILES,Fold Change of HMOX1 mRNA expression (at 10 μM)
1,"CCOC(=O)c1cnc2c(OC)cccc2c1S(=O)(=O)Cc1ccoc1 [Example 5, 4-(Furan-3-ylmethanesulfonyl)-8-methoxy-quinoline-3-carboxylic acid ethyl ester]",2.0 (at 10 μM) fold
2,"COCCCOC(=O)c1c[n+]([O-])ccc1S(=O)(=O)C1CCOC1C (centres unmarked) [Example 22, 4-(2-Methyl-tetrahydro-furan-3-sulfonyl)-1-oxy-nicotinic acid 3-methoxy-propyl ester]",5.6 (at 10 μM) fold
3,"COCCCOC(=O)c1cnccc1S(=O)(=O)C1CCOC1C (centres unmarked) [Example 21, 4-(2-Methyl-tetrahydro-furan-3-sulfonyl)-nicotinic acid 3-methoxy-propyl ester]",6.0 (at 10 μM) fold
4,"CCCC(=O)c1cnc2c(OC)cccc2c1S(=O)(=O)C1CCOC1C (centres unmarked) [Example 7, 1-[8-methoxy-4-(2-methyl-tetrahydro-furan-3-sulfonyl)-quinolin-3-yl]-butan-1-one]",2.8 (at 10 μM) fold

# Same assay, conditions: Homo sapiens, 3.75 μM compound, 6 h, normalized to GAPDH, above DMSO treated cells, read-out: Fold Change of HMOX1 mRNA expression at 3.75 μM
row,SMILES,fold induction at 3.75 µM
1,"CCCS(=O)(=O)c1ccncc1C(=O)OCCCOC [Example 23, 4-(Propane-1-sulfonyl)-nicotinic acid 3-methoxy-propyl ester]",4.2
2,"CCOC(=O)c1cnc2c(OC)cccc2c1S(=O)(=O)c1ccoc1C [Example 4, 8-Methoxy-4-(2-methyl-furan-3-sulfonyl)-quinoline-3-carboxylic acid ethyl ester]",5.8
3,"COc1cccc2c(S(=O)(=O)Cc3ccoc3)c(C(=O)OCC3CCCO3)cnc12 (centres unmarked) [Example 16, 4-(Furan-3-ylmethanesulfonyl)-8-methoxy-quinoline-3-carboxylic acid tetrahydro-furan-2-ylmethyl ester]",2.3
4,"COCCCOC(=O)c1cnc2c(OC)cccc2c1S(=O)(=O)Cc1ccoc1 [Example 13, 4-(Furan-3-ylmethanesulfonyl)-8-methoxy-quinoline-3-carboxylic acid 3-methoxy-propyl ester]",17.2
5,"COc1cccc2c(S(=O)(=O)c3ccoc3C)c(C(=O)OCC3CCCC3)cnc12 [Example 19, 8-Methoxy-4-(2-methyl-furan-3-sulfonyl)-quinoline-3-carboxylic acid cyclopentylmethyl ester]",12.6
6,"CCOC(=O)c1cnc2ccccc2c1S(=O)(=O)C1CCOC1C (centres unmarked) [Example 6, 4-(2-Methyl-tetrahydro-furan-3-sulfonyl)-quinoline-3-carboxylic acid ethyl ester]",64.7
7,"CCOC(=O)/C=C/c1cnc2ccccc2c1S(=O)(=O)C1CCOC1C (centres unmarked) [Example 26, (E)-3-[4-(2-methyl-tetrahydro-furan-3-sulfonyl)-quinolin-3-yl]acrylic acid ethyl ester]",13.2
8,"CC1OCCC1Sc1cnc2ccccc2c1S(=O)(=O)C1CCOC1C (centres unmarked) [Example 20, 4-(2-methyl-tetrahydro-furan-3-sulfonyl)-3-(2-methyl-tetrahydro-furan-3-ylsulfanyl)-quinoline]",25.9
9,"COc1cccc2c(S(=O)(=O)c3ccoc3C)c(C(=O)OCC3CCCO3)cnc12 (centres unmarked) [Example 15, 8-Methoxy-4-(2-methyl-furan-3-sulfonyl)-quinoline-3-carboxylic acid tetrahydro-furan-2-ylmethyl ester]",4.4
10,"CCOC(=O)c1cnc2c(OC)cccc2c1S(=O)(=O)C1CCOC1C (centres unmarked) [Example 2, 8-Methoxy-4-(2-methyl-tetrahydro-furan-3-sulfonyl)-quinoline-3-carboxylic acid ethyl ester]",48.6
11,"CCOC(=O)c1cnc2c(OC)cccc2c1S(C)(=O)=O [Example 1, 4-methanesulfonyl-8-methoxy-quinoline-3-carboxylic acid ethyl ester]",3.4
12,"CC1OCCC1S(=O)(=O)c1c(C(=O)OCC2CCCO2)cnc2ccccc12 (centres unmarked) [Example 17, 4-(2-Methyl-tetrahydro-furan-3-sulfonyl)-quinoline-3-carboxylic acid tetrahydro-furan-2-ylmethyl ester]",7.8
13,"COc1ccc(-c2cnc3ccccc3c2S(=O)(=O)C2CCOC2C)cc1 (centres unmarked) [Example 28, 3-(4-methoxy-phenyl)-4-(2-methyl-tetrahydro-furan-3-sulfonyl)-quinoline]",12.7
14,"CCCS(=O)(=O)c1cnc2c(OC(F)(F)F)cccc2c1NC1CCCCC1 [Example 32, cyclohexyl-[3-(propane-1-sulfonyl)-8-trifluoromethoxy-quinolin-4-yl]-amine]",9.8
15,"COCCCOC(=O)c1cnc2c(OC)cccc2c1S(=O)(=O)C1CCOC1C (centres unmarked) [Example 10, 8-Methoxy-4-(2-methyl-tetrahydro-furan-3-sulfonyl)-quinoline-3-carboxylic acid 3-methoxy-propyl ester]",28.5
16,"COCC#Cc1cnc2ccccc2c1S(=O)(=O)C1CCOC1C (centres unmarked) [Example 25, 3-(3-methoxy-prop-1-ynyl)-4-(2-methyl-tetrahydro-furan-3-sulfonyl)-quinoline]",13
17,"COCCCOC(=O)c1cnccc1S(=O)(=O)CC1CCCCC1 [Example 24, 4-Cyclohexylmethanesulfonyl-nicotinic acid 3-methoxy-propyl ester]",5.3
18,"COCCCOC(=O)c1cnc2ccccc2c1S(=O)(=O)C1CCOC1C (centres unmarked) [Example 14, 4-(2-Methyl-tetrahydro-furan-3-sulfonyl)-quinoline-3-carboxylic acid 3-methoxy-propyl ester]",52.4
19,"CCCCCOC(=O)c1cnc2c(OC)cccc2c1S(=O)(=O)c1ccoc1C [Example 18, 8-Methoxy-4-(2-methyl-furan-3-sulfonyl)-quinoline-3-carboxylic acid pentyl ester]",10.2
20,"COCCCOC(=O)c1cnc2c(OC)cccc2c1S(=O)(=O)c1ccoc1C [Example 12, 8-Methoxy-4-(2-methyl-furan-3-sulfonyl)-quinoline-3-carboxylic acid 3-methoxy-propyl ester]",15.3
